Tests used:
Experiment in all cases: relative viability (nuclei count vs DMSO), 5 days (fraction); higher = more cells survive
Sunitinib + Decitabine = compound: CCN(CC)CCNC(=O)c1c(C)[nH]c(/C=C2\C(=O)Nc3ccc(F)cc32)c1C [Sunitinib] + Nc1ncn([C@H]2C[C@H](O)[C@@H](CO)O2)c(=O)n1 [Decitabine] (partner 2 µM)
Outline: (§1)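 Five library-drug doses in √10 steps were combined with a fixed anchor-drug dose, or a single drug was given alone, by pin tool to lung cancer cell lines in 1536-well plates the day after seeding. Nuclei were stained and counted after 5 days. Relative viability is the nuclei count in treated wells over that in vehicle wells, taken as the median of duplicate plates.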

Sunitinib + Bortezomib = compound: CCN(CC)CCNC(=O)c1c(C)[nH]c(/C=C2\C(=O)Nc3ccc(F)cc32)c1C [Sunitinib] + CC(C)C[C@H](NC(=O)[C@H](Cc1ccccc1)NC(=O)c1cnccn1)B(O)O [Bortezomib] (partner 0.002 µM)
Outline: as §1

Sunitinib + Tozasertib = compound: CCN(CC)CCNC(=O)c1c(C)[nH]c(/C=C2\C(=O)Nc3ccc(F)cc32)c1C [Sunitinib] + Cc1cc(Nc2cc(N3CCN(C)CC3)nc(Sc3ccc(NC(=O)C4CC4)cc3)n2)n[nH]1 [Tozasertib] (partner 0.1 µM)
Outline: as §1

Sunitinib + AZD7762 = compound: CCN(CC)CCNC(=O)c1c(C)[nH]c(/C=C2\C(=O)Nc3ccc(F)cc32)c1C [Sunitinib] + NC(=O)Nc1cc(-c2cccc(F)c2)sc1C(=O)N[C@H]1CCCNC1 [AZD7762] (partner 0.2 µM)
Outline: as §1

Cell Line | relative viability (Sunitinib + Decitabine; first compound 0.02 µM) | relative viability (Sunitinib + Decitabine; first compound 0.06325 µM) | relative viability (Sunitinib + Decitabine; first compound 0.2 µM) | relative viability (Sunitinib + Decitabine; first compound 0.6325 µM) | relative viability (Sunitinib + Decitabine; first compound 2 µM) | relative viability (Sunitinib + Bortezomib; first compound 0.02 µM) | relative viability (Sunitinib + Bortezomib; first compound 0.06325 µM) | relative viability (Sunitinib + Bortezomib; first compound 0.2 µM) | relative viability (Sunitinib + Bortezomib; first compound 2 µM) | relative viability (Sunitinib + Tozasertib; first compound 0.02 µM) | relative viability (Sunitinib + Tozasertib; first compound 0.06325 µM) | relative viability (Sunitinib + Tozasertib; first compound 0.2 µM) | relative viability (Sunitinib + Tozasertib; first compound 0.6325 µM) | relative viability (Sunitinib + Tozasertib; first compound 2 µM) | relative viability (Sunitinib + AZD7762; first compound 0.02 µM) | relative viability (Sunitinib + AZD7762; first compound 0.06325 µM) | relative viability (Sunitinib + AZD7762; first compound 0.2 µM) | relative viability (Sunitinib + AZD7762; first compound 0.6325 µM) | relative viability (Sunitinib + AZD7762; first compound 2 µM) | relative viability (Sunitinib + Bortezomib; first compound 0.6325 µM)
HCC-44 | 0.931 | 1.04 | 0.99 | 0.951 | 0.949 | 0.893 | 0.898 | 1.1 | 0.88 | 0.923 | 1.01 | 1.44 | 1.07 | 0.499 | 1.05 | 1.08 | 1.01 | 1.01 | 1.05 | 
IA-LM |  |  |  |  |  | 0.831 | 0.85 | 0.868 | 1.18 |  |  |  |  |  |  |  |  |  |  | 1.12
NCI-H1755 | 0.69 |  | 0.663 | 0.692 | 0.76 | 0.992 | 1.02 | 1.04 |  | 0.561 | 0.529 | 0.752 | 0.593 | 0.569 | 0.414 | 0.478 | 0.53 | 0.408 | 0.421 | 0.93
NCI-H2170 | 0.452 | 0.465 | 0.484 | 0.422 | 0.412 |  |  |  |  | 0.771 | 0.961 | 0.715 | 0.808 | 0.838 | 0.797 | 0.876 | 0.955 | 0.87 | 0.772 | 
NCI-H441 | 0.271 | 0.285 | 0.266 | 0.271 | 0.317 |  | 1.05 | 0.533 | 0.558 | 0.706 | 0.639 | 0.652 | 0.71 | 0.494 |  | 1.25 | 1.36 | 1.24 | 1.17 | 0.281
LXF-289 | 0.379 | 0.394 | 0.436 | 0.382 | 0.408 | 0.981 | 0.958 | 1.06 | 1.01 | 0.199 | 0.182 | 0.191 | 0.203 | 0.269 | 1.08 | 1.16 | 1.14 | 1.19 | 1.08 | 1.04
COR-L23 | 0.435 | 0.482 | 0.426 | 0.505 | 0.451 | 0.995 | 1.02 | 1 |  | 0.19 | 0.217 | 0.196 | 0.215 | 0.176 |  |  |  |  |  | 1.13
NCI-H1648 | 0.46 | 0.647 | 0.633 | 0.55 | 0.681 |  |  |  |  |  | 0.477 | 0.482 | 0.596 | 0.667 | 0.702 | 0.814 | 0.694 | 0.715 | 0.828 | 
NCI-H1792 | 0.457 | 0.594 | 0.625 | 0.527 | 0.591 | 0.93 | 0.924 | 1.09 | 0.981 |  |  |  |  |  | 0.503 | 0.847 | 1.02 | 0.835 | 0.512 | 0.99
SW 900 | 0.44 | 0.364 | 0.394 | 0.407 | 0.433 |  |  |  |  | 0.432 | 0.58 | 0.648 | 0.525 | 0.328 | 0.633 | 0.676 | 0.664 | 0.67 | 0.648 | 
NCI-H661 | 0.509 | 0.578 | 0.544 | 0.56 | 0.597 |  | 0.77 | 0.801 | 0.87 | 0.357 | 0.379 | 0.356 | 0.363 | 0.401 |  |  |  |  |  | 1
NCI-H1944 | 0.477 | 0.415 | 0.466 | 0.42 | 0.449 |  |  |  |  | 0.229 | 0.283 | 0.283 | 0.255 | 0.258 | 0.435 | 0.481 | 0.656 | 0.63 | 0.506 | 
NCI-H1650 | 0.45 | 0.379 | 0.315 | 0.475 | 0.416 | 0.194 | 0.226 | 0.192 | 0.211 | 0.323 | 0.416 | 0.382 | 0.321 | 0.245 |  |  |  |  |  | 0.203
NCI-H1395 | 0.712 | 0.659 | 0.721 | 0.72 | 0.639 |  |  |  |  | 0.751 | 0.72 | 0.696 | 0.846 | 0.779 | 0.422 | 0.431 | 0.413 | 0.418 | 0.421 | 
NCI-H358 | 0.236 | 0.217 | 0.22 | 0.197 | 0.192 |  |  |  |  | 0.114 | 0.0928 | 0.123 | 0.103 | 0.109 | 0.59 | 0.596 | 0.637 | 0.427 | 0.449 | 
NCI-H522 | 0.594 | 0.675 | 0.735 | 0.719 | 0.717 |  |  |  |  | 0.6 | 0.568 | 0.499 | 0.521 | 0.682 | 0.839 |  | 0.73 | 0.848 | 0.942 | 
A549 | 0.248 | 0.293 | 0.252 | 0.272 | 0.306 |  |  |  |  |  |  |  |  |  |  |  |  |  |  | 
SK-MES-1 | 0.345 | 0.369 | 0.368 | 0.389 | 0.379 |  |  |  |  | 0.892 |  | 0.979 | 1 |  |  |  |  |  |  | 
NCI-H1299 |  |  |  |  |  | 0.999 | 1.06 | 1.01 | 1 |  |  |  |  |  |  |  |  |  |  | 
COR-L 105 | 0.692 | 0.734 | 0.663 | 0.649 | 0.607 | 0.977 | 0.877 | 0.923 | 0.823 | 0.365 | 0.378 | 0.371 | 0.401 | 0.41 |  |  |  |  |  | 1.01
Calu-6 |  |  |  |  |  | 0.979 |  | 1.08 | 1.09 |  |  |  |  |  |  |  |  |  |  | 1.2
NCI-H1563 |  |  |  |  |  | 0.752 | 0.918 | 0.897 | 0.771 |  |  |  |  |  |  |  |  |  |  | 0.906
NCI-H2228 |  |  |  |  |  | 1.04 | 1.14 | 1.22 | 1 | 0.23 | 0.266 | 0.279 | 0.207 | 0.223 |  |  |  |  |  | 1.15
NCI-H520 | 0.487 | 0.499 | 0.55 | 0.577 | 0.537 | 0.738 | 0.785 | 0.638 | 0.819 | 0.44 | 0.384 | 0.435 | 0.375 | 0.421 |  |  |  |  |  | 0.783
NCI-H1703 |  |  |  |  |  | 0.249 | 0.218 | 0.176 | 0.176 |  |  |  |  |  | 0.136 | 0.146 | 0.127 | 0.138 | 0.122 | 0.19

Source: the supplement of paper PMC10307832
